pEC50: −log10 of the molar value. Values joined by “and” are separate entries in the source; they are usually repeats but may differ in a detail not shown here. Equal values may be shown once. Read-outs that look alike come from different tables or passages of the source.
Assays:
[1] = system: SARS-CoV-2; experiment: qRT-PCR of viral RNA using SARS-CoV-2-infected Vero E6 cells; format: cell-based; conditions: Severe acute respiratory syndrome coronavirus 2, Vero C1008, footnote b: qRT-PCR of viral RNA, MOI 0.001, non-linear curve fit, read-out: EC50 (95% CI) (anti-SARS-CoV-2 activity, qRT-PCR of viral RNA)
[2] = Cytotoxicity by WST-8 assay using uninfected Vero E6 cells; format: cell-based; conditions: African green monkey
[3] = system: SARS-CoV-2; experiment: microbe, parasite or virus in culture; format: cell-based; conditions: MOI 0.001, day 3 post-infection; for pEC50: Severe acute respiratory syndrome coronavirus 2, Vero C1008, 72 h, footnote a: CPE assay, SARS-CoV-2-infected Vero E6 cells, read-out: EC50 (anti-SARS-CoV-2 activity, CPE assay); for Anti-SARS-CoV-2 activity by CPE assay (crystal violet staining): Vero E6 cells, 30 μM in Figure 2
[4] = system: SARS-CoV-2; experiment: Syrian hamster model of COVID-19, intraperitoneal treatment; conditions: for Body weight change of infected hamsters / Inflammatory area of lung sections: IP, 2 at 110 mg/kg/day qd, Molnupiravir 220 mg/kg/day bid; for Inflammatory area of lung sections: lung histopathology 5 dpi
[5] = system: SARS-CoV-2; experiment: Syrian hamster model of COVID-19, inhalation treatment by nebulizer; conditions: for Inflammatory area of lung sections: lung histopathology 5 dpi, INH 110 mg/kg/day qd
[6] = target: recombinant SARS-CoV-2 RdRp complex (Severe acute respiratory syndrome coronavirus 2, UniProt P0DTD1); format: biochemical; conditions: 10 μM, 34°C, 2 h
[7] = target: T1, vaccinia capping enzyme (VCE) (Vaccinia virus, UniProt P04298); format: biochemical; conditions: model RNA fragment, 37°C, 2 h, LC-MS
T1 construct: purchased CellScript C-SCCS2250

[8] = WST-8 assay, uninfected Vero E6 cells, read-out: CC50

Q: With `O=c1nc(NO)ccn1[C@@H]1O[C@H](CO)[C@@H](O)[C@H]1O` [NHC, N^4-hydroxy cytidine, reference compound] as the compound, how does the pEC50 [1] read?
A: Its pEC50 is 6.57.

Q: And the CC50 [2]?
A: The CC50 was over 200 µM.

Q: Which results are given for `Nc1nccc2c1ncn2[C@@H]1O[C@H](CO)[C@@H](O)[C@H]1O` [Compound 1, 3-deazaadenosine]?
A: pEC50 [3]: < 4.52; CC50 [2]: > 200 µM

Q: With `CC(C)C(=O)OC[C@H]1O[C@@H](n2ccc(NO)nc2=O)[C@H](O)[C@@H]1O` [Molnupiravir, reference compound] as the compound, how does the “Body weight change of infected hamsters” value [4] read?
A: Its value is “marginal reduction in body weight”.

Q: What about the “Inflammatory area of lung sections” value [4] of the same compound?
A: The value was 0.24 ± 0.16%.

Q: What about the “Inflammatory area of lung sections” value [5] of the same compound?
A: The value was 4.77 (±3.04) %.

Q: With `CCC(CC)COC(=O)[C@H](C)N[P@](=O)(OC[C@H]1O[C@@](C#N)(c2ccc3c(N)ncnn23)[C@H](O)[C@@H]1O)Oc1ccccc1` [Remdesivir, reference compound] as the compound, how does the pEC50 [1] read?
A: The pEC50 was 6.33.

Q: What about the CC50 [2, 8] of the same compound?
A: Its CC50 is over 200 µM.

Q: With `OC[C@H]1O[C@@H](n2cnc3c(O)nccc32)[C@H](O)[C@@H]1O` [Compound 3, 3-deazainosine] as the compound, how does the pEC50 [3] read?
A: The pEC50 was under 4.52.

Q: What about the CC50 [2] of the same compound?
A: Its CC50 is over 200 µM.

Q: With `Nc1cc2c(ncn2[C@@H]2O[C@H](CO)[C@@H](O)[C@H]2O)c(N)n1` [Compound 6, 4,6-Diamino-1-β-D-ribofuranosyl-1H-imidazo[4,5-c]pyridine] as the compound, how does the pEC50 [3] read?
A: Its pEC50 is under 4.52.

Q: What about the “Anti-SARS-CoV-2 activity by CPE assay (crystal violet staining)” value (“Anti-SARS-CoV-2 activity by CPE assay” below) [3] of the same compound?
A: Its value is “no inhibitory effects”.

Q: And the CC50 [2]?
A: The CC50 was over 200 µM.

Q: Which results are given for `Nc1cc2[nH]cnc2c(=O)[nH]1` [Compound 10, 6-Amino-1H-Imidazo[4,5-c]pyridin-4(5H)-one]?
A: Anti-SARS-CoV-2 activity by CPE assay (crystal violet staining) [3]: had anti-SARS-CoV-2 activity; pEC50 [1]: 4.90; CC50 [2, 8]: > 200 µM

Q: With `Nc1[nH]c(=O)c2ncn([C@@H]3O[C@H](CO)[C@@H](O)[C@H]3O)c2c1Cl` [Compound 5, 3-chloro-3-Deazaguanosine] as the compound, how does the pEC50 [3] read?
A: Its pEC50 is under 4.52.

Q: What about the “Anti-SARS-CoV-2 activity by CPE assay” value [3] of the same compound?
A: Its value is “loss of anti-viral activity”.

Q: What about the CC50 [2] of the same compound?
A: The CC50 was over 200 µM.

Q: For `Nc1nc2c(ncn2[C@H]2CC[C@@H](COP(=O)(O)OP(=O)(O)OP(=O)(O)O)O2)c(=O)[nH]1` [ddGTP, 2′,3′-dideoxy GTP, reference compound], which “RNA synthesis by recombinant SARS-CoV-2 RdRp complex (fluorescence intensity)” value [6] is on record?
A: Its value is “reduced”.

Q: Which “RNA synthesis by recombinant SARS-CoV-2 RdRp complex (fluorescence intensity)” value [6] does the source give for `Nc1cc2c(ncn2[C@@H]2O[C@H](COP(=O)(O)OP(=O)(O)OP(=O)(O)O)[C@@H](O)[C@H]2O)c(=O)[nH]1` [Compound 2-TP, 6-Amino-1-(β-D-ribofuranosyl)-1H-imidazo[4,5-c]pyridin-4(5H)-one 5′-triphosphate] here?
A: The value was “not inhibited”.

Q: What about the “5′-capped RNA formed by VCE in the presence of both GTP and the compound” value [7] of the same compound?
A: Its value is “no 5′-capped RNA”.

Q: And the “5′-capped RNA formed by VCE with the compound in place of GTP” value [7]?
A: Its value is “small amounts of 5′-C^3GpppA-capped RNA (IIIb) and 5′-m7C^3GpppG-capped RNA (IVb)”.

Q: For `Nc1cc2c(ncn2[C@H]2C[C@H](O)[C@@H](CO)O2)c(=O)[nH]1` [Compound 11, 6-Amino-1-(2-deoxy-β-D-ribofuranosyl)-1H-imidazo[4,5-c]pyridin-4(5H)-one], which “Anti-SARS-CoV-2 activity by CPE assay” value [3] is on record?
A: Its value is “had anti-SARS-CoV-2 activity”.

Q: What about the pEC50 [1] of the same compound?
A: The pEC50 was 5.27.

Q: What about the CC50 [2] of the same compound?
A: Its CC50 is over 200 µM.

Q: With `Nc1cc2c(ncn2[C@@H]2O[C@H](CO)[C@@H](O)[C@H]2O)c(=O)[nH]1` [Compound 2, 3-Deazaguanosine] as the compound, how does the “Anti-SARS-CoV-2 activity by CPE assay” value [3] read?
A: The value was “inhibited viral replication”.

Q: And the pEC50 [1]?
A: Its pEC50 is 5.94.

Q: What about the CC50 [2] of the same compound?
A: The CC50 was over 200 µM.

Q: And the “Lower infectious viral titer in lungs (fold)” value ([4]; 2 dpi, IP 110 mg/kg/day qd)?
A: The value was > 10^5 fold.

Q: And the “Body weight change of infected hamsters” value [4]?
A: The value was “marginal reduction in body weight”.

Q: What about the “Inflammatory area of lung sections” value [4] of the same compound?
A: The value was 0.02 ± 0.02%.

Q: And the “Lower infectious viral titer in lungs (fold)” value ([5]; 5 dpi, inhalation, approximately 110 mg/kg/day qd)?
A: The value was “more than 10^2 fold”.

Q: And the “Body weight loss associated with infection” value ([5]; inhalation, approximately 110 mg/kg/day qd)?
A: Its value is “reduction in the body weight loss”.

Q: What about the “Inflammatory area of lung sections” value [5] of the same compound?
A: The value was 0.98 (±0.36) % and 0.98 ± 0.36%.

Q: With `Nc1[nH]c(=O)c2ncn([C@@H]3O[C@H](CO)[C@@H](O)[C@H]3O)c2c1F` [Compound 4, 3-fluoro-3-Deazaguanosine] as the compound, how does the pEC50 [3] read?
A: Its pEC50 is under 4.52.

Q: And the “Anti-SARS-CoV-2 activity by CPE assay” value [3]?
A: The value was “loss of anti-viral activity”.

Q: And the CC50 [2]?
A: Its CC50 is over 200 µM.
